Data as given in US10206394B2, “Herbicidal compounds” (Syngenta Participations AG, priority 2014, dated 2019).
Read-outs that look alike come from different tables or passages of the source.

Key:
Assay in all cases: Glasshouse assay for herbicidal activity (pre- and post-emergence), percentage phytotoxicity
Format in all cases: in vivo
[1] = system: Alopecurus myosuroides (ALOMY); conditions: Alopecurus myosuroides; for pest or weed control at 250 g/ha: visual assessment (100%=total damage, 0%=no damage)
In short: (§1)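 Percent injury was estimated by eye on a scale where 0% means no damage and 100% complete damage. Ratings came 15 DAA post-emergence and 20 DAA pre-emergence, with plants held under 16 h light and 65% humidity at 24/18 °C or 20/16 °C day/night.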

[2] = system: Echinochloa crus-galli (ECHCG); conditions: Echinochloa crus-galli; for pest or weed control at 250 g/ha: visual assessment (100%=total damage, 0%=no damage)
In short: as §1

Lolium perenne (LOLPE) = conditions: Lolium perenne; for pest or weed control at 250 g/ha: visual assessment (100%=total damage, 0%=no damage)
In short: as §1

Avena fatua (AVEFA) = conditions: Avena fatua; for pest or weed control at 250 g/ha: visual assessment (100%=total damage, 0%=no damage)
In short: as §1

[3] = post-emergence, 360 h, post-emergence, 15 DAA, read-out: Post-emergence herbicidal activity (percentage phytotoxicity) ALOMY POST
[4] = pre-emergence, 480 h, pre-emergence, 20 DAA, read-out: Pre-emergence herbicidal activity (percentage phytotoxicity) ALOMY PRE
[5] = post-emergence, 360 h, post-emergence, 15 DAA, read-out: Post-emergence herbicidal activity (percentage phytotoxicity) ECHCG POST
[6] = pre-emergence, 480 h, pre-emergence, 20 DAA, read-out: Pre-emergence herbicidal activity (percentage phytotoxicity) ECHCG PRE
[7] = post-emergence, 360 h, post-emergence, 15 DAA, read-out: Post-emergence herbicidal activity (percentage phytotoxicity) LOLPE POST
[8] = pre-emergence, 480 h, pre-emergence, 20 DAA, read-out: Pre-emergence herbicidal activity (percentage phytotoxicity) LOLPE PRE
[9] = post-emergence, 360 h, post-emergence, 15 DAA, read-out: Post-emergence herbicidal activity (percentage phytotoxicity) AVEFA POST
[10] = pre-emergence, 480 h, pre-emergence, 20 DAA, read-out: Pre-emergence herbicidal activity (percentage phytotoxicity) AVEFA PRE

SMILES	pest or weed control at 250 g/ha [1, 3] [%]	pest or weed control at 250 g/ha [1, 4] [%]	pest or weed control at 250 g/ha [2, 5] [%]	pest or weed control at 250 g/ha [2, 6] [%]	pest or weed control at 250 g/ha (Lolium perenne (LOLPE); [7]) [%]	pest or weed control at 250 g/ha (Lolium perenne (LOLPE); [8]) [%]	pest or weed control at 250 g/ha (Avena fatua (AVEFA); [9]) [%]	pest or weed control at 250 g/ha (Avena fatua (AVEFA); [10]) [%]	pest or weed control at 16 g/ha [1, 3] [%]	pest or weed control at 16 g/ha [1, 4] [%]	pest or weed control at 16 g/ha [2, 5] [%]	pest or weed control at 16 g/ha [2, 6] [%]	pest or weed control at 16 g/ha (Lolium perenne (LOLPE); [7]) [%]	pest or weed control at 16 g/ha (Lolium perenne (LOLPE); [8]) [%]	pest or weed control at 16 g/ha (Avena fatua (AVEFA); [9]) [%]	pest or weed control at 16 g/ha (Avena fatua (AVEFA); [10]) [%]
CCC(C)NC(=O)CC1CC(=O)C(c2c(C)cc(Br)cc2C)C1=O (centres unmarked) [Compound B120]	80	80	80	80	90	90	90	70								
COCC(C)NC(=O)CC1CC(=O)C(c2c(C)cc(-c3ncc(Cl)cc3F)cc2C)C1=O (centres unmarked) [Compound B121]	100	100	100	100	100	100	100	90								
Cc1cc(Br)cc(C)c1C1C(=O)CC(CC(=O)NCC2CC2)C1=O (centres unmarked) [Compound B122]	100	80	100	70	100	90	100	80								
Cc1cc(-c2ncc(Cl)cc2F)cc(C)c1C1C(=O)CC(CC(=O)NCC2CC2)C1=O (centres unmarked) [Compound B123]	100	100	100	100	100	100	100	90								
Cc1cc(-c2ncc(Cl)cc2F)cc(C)c1C1C(=O)CC(CC(=O)NCC(C)C)C1=O (centres unmarked) [Compound B124]	100	90	100	100	100	100	100	100								
Cc1cc(-c2ncc(Cl)cc2F)cc(C)c1C1C(=O)CC(CC(=O)NC2CCCC2)C1=O (centres unmarked) [Compound B125]	90	80	100	100	100	100	100	40								
C#CC(C)(C)NC(=O)CC1CC(=O)C(c2c(C)cc(-c3ncc(Cl)cc3F)cc2C)C1=O (centres unmarked) [Compound B126]	100	100	100	100	100	100	100	90								
C#CC(C)(C)NC(=O)CC1CC(=O)C(c2c(C)cc(Br)cc2C)C1=O (centres unmarked) [Compound B127]	90	90	100	70	90	70	100	80								
COCCCNC(=O)CC1CC(=O)C(c2c(C)cc(-c3ncc(Cl)cc3F)cc2C)C1=O (centres unmarked) [Compound B128]	100	100	100	100	100	100	100	100								
Cc1cc(-c2ncc(Cl)cc2F)cc(C)c1C1C(=O)CC(CC(=O)NCc2cccc(F)c2)C1=O (centres unmarked) [Compound B129]	100	90	100	70	100	90	100	50								
Cc1cc(Br)cc(C)c1C1C(=O)CC(CC(=O)NCc2cccc(F)c2)C1=O (centres unmarked) [Compound B130]	90	80	90	70	100	80	90	40								
COc1cccc(CNC(=O)CC2CC(=O)C(c3c(C)cc(-c4ncc(Cl)cc4F)cc3C)C2=O)c1 (centres unmarked) [Compound B131]	90	80	100	90	90	80	100	30								
COc1cccc(CNC(=O)CC2CC(=O)C(c3c(C)cc(Br)cc3C)C2=O)c1 (centres unmarked) [Compound B132]	60	80	80	20	70	80	20	30								
C=C(Cl)CNC(=O)CC1CC(=O)C(c2c(C)cc(C)cc2C)C1=O (centres unmarked) [Compound B133]	50	80	50	80	90	100	60	0								
COCC(C)NC(=O)CC1CC(=O)C(c2c(C)cc(Br)cc2C)C1=O (centres unmarked) [Compound B134]	90	90	80	70	80	80	90	70								
CCc1cc(-n2cc(Cl)cn2)cc(C)c1C1C(=O)CC(CC(=O)NC(C)(C)C)C1=O (centres unmarked) [Compound B135]	100	100	100	100	100	100	100	90								
C/C=C/c1cc(C)c(C2C(=O)CC(CC(=O)NC(C)(C)C)C2=O)c(CC)c1 (centres unmarked) [Compound B136]									60	90	90	100	100	90	100	100
C/C=C/c1cc(C)c(C2C(=O)CC(CC(=O)N3CCOCC3)C2=O)c(CC)c1 (centres unmarked) [Compound B137]	100	20	90	60	100	50	100	50								
Cc1cc(C)c(C2C(=O)CC(CC(=O)NC3(C(F)(F)F)CC3)C2=O)c(C)c1 (centres unmarked) [Compound B138]	90	80	80	90	80	70	70	0								
